Laboratory results from ChEMBL document CHEMBL4043168, “The design and SAR of a novel series of 2-aminopyridine based LRRK2 inhibitors” (Bioorg Med Chem Lett, 2017).

Tests used:
[1] = target: Mitogen-activated protein kinase kinase kinase 4 (Homo sapiens) (UniProt Q9Y6R4); assay: Inhibition of MAP3K4 conserved Lys2 (DIKGANIFLTSSGLIK) in human PBMC at 1 uM
[2] = target: Serine/threonine-protein kinase 25 (Homo sapiens) (UniProt O00506); assay: Inhibition of YSK1 conserved Lys2 (DIKAANVLLSEQGDVK) in human PBMC at 1 uM
[3] = target: Ribosomal protein S6 kinase alpha-1 (Homo sapiens) (UniProt Q15418); assay: Inhibition of RSK1 domain2 conserved Lys2 (DLKPSNILYVDESGNPECLR) in human PBMC at 1 uM
[4] = target: Serine/threonine-protein kinase SMG1 (Homo sapiens) (UniProt Q96Q15); assay: Inhibition of SMG1 ATP binding site (SYPYLFKGLEDLHLDER) in human PBMC at 1 uM
[5] = target: Serine/threonine-protein kinase TAO2 (Homo sapiens) (UniProt Q9UL54); assay: Inhibition of TAO2 conserved Lys2 (DVKAGNILLSEPGLVK) in human PBMC at 1 uM
[6] = target: Tyrosine-protein kinase Fer (Homo sapiens) (UniProt P16591); assay: Inhibition of FER conserved Lys2 (QEDGGVYSSSGLKQIPIK) in human PBMC at 0.1 uM
[7] = target: Tyrosine-protein kinase Fgr (Homo sapiens) (UniProt P09769); assay: Inhibition of FGR conserved Lys1 (LIKDDEYNPCQGSKFPIK) in human PBMC at 0.1 uM
[8] = target: Inhibitor of nuclear factor kappa-B kinase subunit beta (Homo sapiens) (UniProt O14920); assay: Inhibition of IKKb conserved Lys2 (DLKPENIVLQQGEQR) in human PBMC at 0.1 uM
[9] = target: T1, Interleukin-1 receptor-associated kinase 4 (Homo sapiens) (UniProt Q9NWZ3); assay: Inhibition of IRAK4 conserved Lys2 (DIKSANILLDEAFTAK) in human PBMC at 0.1 uM
T1 sequence (whole entry): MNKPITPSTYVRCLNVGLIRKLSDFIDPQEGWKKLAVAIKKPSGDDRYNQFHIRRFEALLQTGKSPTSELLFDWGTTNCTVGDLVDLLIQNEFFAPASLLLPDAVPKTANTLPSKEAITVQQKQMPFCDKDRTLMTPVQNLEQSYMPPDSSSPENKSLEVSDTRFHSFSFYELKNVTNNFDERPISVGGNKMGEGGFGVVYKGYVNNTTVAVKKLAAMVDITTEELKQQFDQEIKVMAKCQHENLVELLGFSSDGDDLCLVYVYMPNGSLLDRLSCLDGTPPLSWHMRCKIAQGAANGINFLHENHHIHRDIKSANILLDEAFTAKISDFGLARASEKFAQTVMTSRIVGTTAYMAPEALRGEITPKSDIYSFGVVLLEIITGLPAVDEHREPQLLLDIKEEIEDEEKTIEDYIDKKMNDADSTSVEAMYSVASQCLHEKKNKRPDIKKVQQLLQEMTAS

[10] = target: Serine/threonine-protein kinase 26 (Homo sapiens) (UniProt Q9P289); assay: Inhibition of MST4 conserved Lys2 (DIKAANVLLSEQGDVK) in human PBMC at 0.1 uM
[11] = target: Serine/threonine-protein kinase Nek4 (Homo sapiens) (UniProt P51957); assay: Inhibition of NEK4 conserved Lys2 (DLKTQNVFLTR) in human PBMC at 0.1 uM
[12] = target: Serine/threonine-protein kinase SMG1 (Homo sapiens) (UniProt Q96Q15); assay: Inhibition of SMG1 ATP binding site (SYPYLFKGLEDLHLDER) in human PBMC at 0.1 uM
[13] = target: Mitogen-activated protein kinase kinase kinase 7 (Homo sapiens) (UniProt O43318); assay: Inhibition of TAK1 conserved Lys2 (DLKPPNLLLVAGGTVLK) in human PBMC at 0.1 uM
[14] = target: Serine/threonine-protein kinase WNK1 (Homo sapiens) (UniProt Q9H4A3); assay: Inhibition of Wnk1 ATP binding site (GSFKTVYK) in human PBMC at 0.1 uM

Chain of Serine/threonine-protein kinase SMG1 (Homo sapiens) (Q96Q15 whole entry): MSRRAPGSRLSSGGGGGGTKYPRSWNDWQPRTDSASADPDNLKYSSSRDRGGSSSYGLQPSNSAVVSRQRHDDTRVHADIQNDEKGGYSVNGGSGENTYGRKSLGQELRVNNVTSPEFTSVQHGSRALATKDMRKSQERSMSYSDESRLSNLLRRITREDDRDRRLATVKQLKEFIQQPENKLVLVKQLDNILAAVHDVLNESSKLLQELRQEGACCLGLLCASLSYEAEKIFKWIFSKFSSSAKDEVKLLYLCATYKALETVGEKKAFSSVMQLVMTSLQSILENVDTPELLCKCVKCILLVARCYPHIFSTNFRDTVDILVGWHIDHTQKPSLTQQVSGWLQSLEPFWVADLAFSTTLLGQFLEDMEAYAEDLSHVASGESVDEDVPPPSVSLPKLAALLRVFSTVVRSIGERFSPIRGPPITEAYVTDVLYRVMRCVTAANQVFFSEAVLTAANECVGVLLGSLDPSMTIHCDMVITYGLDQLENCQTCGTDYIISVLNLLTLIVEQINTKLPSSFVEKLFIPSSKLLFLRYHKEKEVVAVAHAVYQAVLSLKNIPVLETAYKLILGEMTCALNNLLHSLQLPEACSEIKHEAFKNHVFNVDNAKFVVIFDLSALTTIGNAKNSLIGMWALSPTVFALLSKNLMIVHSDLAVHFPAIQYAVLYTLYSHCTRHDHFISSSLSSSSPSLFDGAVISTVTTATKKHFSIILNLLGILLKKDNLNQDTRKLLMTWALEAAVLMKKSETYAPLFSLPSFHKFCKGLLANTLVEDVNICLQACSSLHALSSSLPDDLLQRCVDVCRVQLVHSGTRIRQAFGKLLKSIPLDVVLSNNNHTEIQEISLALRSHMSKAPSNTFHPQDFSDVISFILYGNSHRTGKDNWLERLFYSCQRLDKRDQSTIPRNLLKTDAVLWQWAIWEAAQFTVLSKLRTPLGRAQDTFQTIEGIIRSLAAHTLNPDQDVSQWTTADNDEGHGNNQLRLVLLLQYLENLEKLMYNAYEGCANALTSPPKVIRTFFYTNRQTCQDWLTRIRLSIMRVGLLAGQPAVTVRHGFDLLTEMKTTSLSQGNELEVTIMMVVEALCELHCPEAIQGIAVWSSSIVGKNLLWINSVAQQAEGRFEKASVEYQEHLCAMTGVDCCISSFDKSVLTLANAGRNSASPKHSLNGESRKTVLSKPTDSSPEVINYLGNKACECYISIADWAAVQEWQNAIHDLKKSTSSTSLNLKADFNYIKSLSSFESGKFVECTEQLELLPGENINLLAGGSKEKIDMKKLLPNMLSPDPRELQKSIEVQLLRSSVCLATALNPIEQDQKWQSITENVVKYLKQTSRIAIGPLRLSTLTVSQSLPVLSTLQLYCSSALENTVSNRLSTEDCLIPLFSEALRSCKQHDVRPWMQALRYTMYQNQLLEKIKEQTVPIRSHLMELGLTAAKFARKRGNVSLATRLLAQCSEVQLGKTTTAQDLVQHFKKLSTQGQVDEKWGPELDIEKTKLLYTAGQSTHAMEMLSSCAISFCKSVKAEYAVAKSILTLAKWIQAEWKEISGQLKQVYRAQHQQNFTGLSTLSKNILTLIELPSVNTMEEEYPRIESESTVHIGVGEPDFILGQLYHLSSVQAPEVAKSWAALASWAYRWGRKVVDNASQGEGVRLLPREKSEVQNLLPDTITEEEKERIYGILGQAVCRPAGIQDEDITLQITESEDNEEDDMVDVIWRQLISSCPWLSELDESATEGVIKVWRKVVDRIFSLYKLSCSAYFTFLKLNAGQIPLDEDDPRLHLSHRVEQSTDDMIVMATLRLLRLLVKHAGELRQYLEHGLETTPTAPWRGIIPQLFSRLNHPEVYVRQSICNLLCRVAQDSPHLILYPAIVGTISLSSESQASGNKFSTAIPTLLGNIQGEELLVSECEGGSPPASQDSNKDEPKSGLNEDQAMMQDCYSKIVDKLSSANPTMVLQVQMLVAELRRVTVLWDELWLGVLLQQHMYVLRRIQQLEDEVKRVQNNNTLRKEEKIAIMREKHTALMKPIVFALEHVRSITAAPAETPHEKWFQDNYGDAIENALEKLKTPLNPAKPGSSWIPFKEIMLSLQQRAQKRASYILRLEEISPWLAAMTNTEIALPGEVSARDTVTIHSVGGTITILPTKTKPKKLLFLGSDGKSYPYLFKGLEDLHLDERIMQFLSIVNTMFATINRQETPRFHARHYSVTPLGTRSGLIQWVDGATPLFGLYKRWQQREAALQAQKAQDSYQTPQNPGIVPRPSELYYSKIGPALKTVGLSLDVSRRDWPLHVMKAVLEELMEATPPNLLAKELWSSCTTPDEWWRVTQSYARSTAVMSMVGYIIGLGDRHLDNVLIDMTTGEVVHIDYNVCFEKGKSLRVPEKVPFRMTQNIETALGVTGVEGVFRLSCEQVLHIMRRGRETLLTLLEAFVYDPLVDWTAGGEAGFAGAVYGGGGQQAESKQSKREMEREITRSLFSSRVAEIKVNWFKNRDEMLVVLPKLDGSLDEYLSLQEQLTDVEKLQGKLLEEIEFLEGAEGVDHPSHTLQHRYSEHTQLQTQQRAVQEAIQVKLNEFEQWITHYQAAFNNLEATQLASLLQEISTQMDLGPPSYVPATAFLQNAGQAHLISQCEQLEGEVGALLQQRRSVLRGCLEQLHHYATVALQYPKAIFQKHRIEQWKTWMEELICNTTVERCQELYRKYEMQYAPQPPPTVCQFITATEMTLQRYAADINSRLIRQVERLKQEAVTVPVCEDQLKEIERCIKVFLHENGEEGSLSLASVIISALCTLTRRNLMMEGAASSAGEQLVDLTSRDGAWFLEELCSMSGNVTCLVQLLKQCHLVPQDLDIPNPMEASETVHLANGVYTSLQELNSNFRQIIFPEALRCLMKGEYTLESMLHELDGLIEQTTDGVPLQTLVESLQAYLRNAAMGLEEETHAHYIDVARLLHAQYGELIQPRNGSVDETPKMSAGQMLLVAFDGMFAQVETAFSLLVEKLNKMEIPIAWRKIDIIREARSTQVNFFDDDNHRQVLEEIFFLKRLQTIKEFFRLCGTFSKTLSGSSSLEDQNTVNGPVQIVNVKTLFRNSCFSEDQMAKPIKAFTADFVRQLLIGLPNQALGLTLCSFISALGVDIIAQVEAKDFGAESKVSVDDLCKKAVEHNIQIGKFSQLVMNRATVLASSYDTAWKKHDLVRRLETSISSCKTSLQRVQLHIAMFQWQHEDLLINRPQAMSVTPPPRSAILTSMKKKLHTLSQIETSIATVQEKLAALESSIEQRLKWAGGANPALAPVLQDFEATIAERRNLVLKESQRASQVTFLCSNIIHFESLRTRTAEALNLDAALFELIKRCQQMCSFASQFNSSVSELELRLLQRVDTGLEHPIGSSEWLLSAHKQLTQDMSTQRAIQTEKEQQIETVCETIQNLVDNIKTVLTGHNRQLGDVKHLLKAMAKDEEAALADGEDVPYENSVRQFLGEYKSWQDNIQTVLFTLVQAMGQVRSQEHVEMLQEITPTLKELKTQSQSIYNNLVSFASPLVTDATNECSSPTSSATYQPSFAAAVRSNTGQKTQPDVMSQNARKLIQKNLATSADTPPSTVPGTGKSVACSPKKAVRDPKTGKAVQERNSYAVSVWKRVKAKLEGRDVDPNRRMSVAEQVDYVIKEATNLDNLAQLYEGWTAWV
Chain of Serine/threonine-protein kinase TAO2 (Homo sapiens) (Q9UL54 whole entry): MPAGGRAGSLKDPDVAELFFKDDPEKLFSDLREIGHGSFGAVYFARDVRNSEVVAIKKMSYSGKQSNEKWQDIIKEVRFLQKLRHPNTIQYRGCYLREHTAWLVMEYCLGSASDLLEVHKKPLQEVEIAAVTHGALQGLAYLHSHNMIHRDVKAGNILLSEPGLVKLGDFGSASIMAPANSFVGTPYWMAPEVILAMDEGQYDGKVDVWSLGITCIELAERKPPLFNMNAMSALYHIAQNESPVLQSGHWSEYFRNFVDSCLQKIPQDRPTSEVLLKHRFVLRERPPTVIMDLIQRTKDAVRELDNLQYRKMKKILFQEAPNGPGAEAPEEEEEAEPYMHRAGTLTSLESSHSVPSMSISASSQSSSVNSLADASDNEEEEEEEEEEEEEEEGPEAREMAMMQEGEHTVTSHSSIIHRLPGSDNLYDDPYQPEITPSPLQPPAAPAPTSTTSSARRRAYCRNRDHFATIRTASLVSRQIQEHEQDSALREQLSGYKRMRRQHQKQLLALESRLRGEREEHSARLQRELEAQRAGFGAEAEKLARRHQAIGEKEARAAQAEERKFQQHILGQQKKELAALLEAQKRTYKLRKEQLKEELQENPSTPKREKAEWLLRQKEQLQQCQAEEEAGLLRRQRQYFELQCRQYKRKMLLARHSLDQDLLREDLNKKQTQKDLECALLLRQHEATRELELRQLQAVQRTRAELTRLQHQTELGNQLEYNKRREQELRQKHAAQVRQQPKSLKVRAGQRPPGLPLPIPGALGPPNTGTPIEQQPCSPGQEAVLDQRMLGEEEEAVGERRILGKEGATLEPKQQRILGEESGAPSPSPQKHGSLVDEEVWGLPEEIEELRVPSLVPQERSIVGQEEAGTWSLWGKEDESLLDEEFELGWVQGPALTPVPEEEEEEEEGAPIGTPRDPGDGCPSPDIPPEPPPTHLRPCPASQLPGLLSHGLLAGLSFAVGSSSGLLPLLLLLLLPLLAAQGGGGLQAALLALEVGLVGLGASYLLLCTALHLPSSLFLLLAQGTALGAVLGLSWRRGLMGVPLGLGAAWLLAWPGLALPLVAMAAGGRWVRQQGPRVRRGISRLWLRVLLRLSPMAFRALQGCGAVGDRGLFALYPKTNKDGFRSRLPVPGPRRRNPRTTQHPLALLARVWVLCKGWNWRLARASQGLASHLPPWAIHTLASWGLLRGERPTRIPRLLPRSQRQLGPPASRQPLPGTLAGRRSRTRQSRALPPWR

## CC(C)n1cc(-c2cc(-c3ccc(CN4CCOCC4)cc3)cnc2N)nn1
[1]
  inhibition: -0.5%
[2]
  inhibition: 9.9%
[3]
  inhibition: -6%
[4]
  inhibition: 6.6%
[5]
  inhibition: -3.8%
[6]
  inhibition: 8.5%
[7]
  inhibition: 9.6%
[8]
  inhibition: 1.5%
[9]
  inhibition: -1.8%
[10]
  inhibition: 0.5%
[11]
  inhibition: 5.6%
[12]
  inhibition: 12.7%
[13]
  inhibition: -0.4%
[14]
  inhibition: 18.3%
